How the values were obtained:
[1] = Cytotoxicity against mouse BA/F3 cells expressing EGFR L858R mutant; format: functional, cell-based; settings: BaF3
[2] = Cytotoxicity against mouse BA/F3 cells expressing EGFR L858R/T790M mutant; format: functional, cell-based; settings: BaF3

SMILES	IC50 [1] [nM]	IC50 [2] [nM]
CCOc1cc2ncc(C#N)c(Nc3ccc(OCc4ccccn4)c(Cl)c3)c2cc1NC(=O)/C=C/CN(C)C [NERATINIB]	3.5	180
C#Cc1cccc(Nc2ncnc3cc(OCCOC)c(OCCOC)cc23)c1 [ERLOTINIB]	12.5	
